pIC50: −log10 of the molar value. One block for each compound: values may come before it. The source made the active and inactive calls. The calls are words filed in the database; no cut-off is given here.
Legend:
RAW264.7 [1] = test: Inhibition of LPS-induced NO production in mouse RAW264.7 cells at 20 uM preincubated for 2 hrs followed by LPS addition and measured after 24 hrs by Griess assay relative to control; format: functional; details: time 26 hrs
[2] = Cytotoxicity against mouse RAW264.7 cells assessed as inhibition of cell viability at 20 uM by MTT assay relative to control; format: toxicity, cell-based; details: read-out: INH
[3] = Cytotoxicity against mouse RAW264.7 cells assessed as inhibition of cell viability by MTT assay relative to control; format: toxicity, cell-based
RAW264.7 [4] = test: Inhibition of LPS-induced NO production in mouse RAW264.7 cells preincubated for 2 hrs followed by LPS addition and measured after 24 hrs by Griess assay relative to control; format: functional, cell-based
Mus musculus [5] = test: Antiinflammatory activity against MC093-induced atopic dermatitis BALB/c mouse model assessed as reduction in epidermal thickness of ear administered starting from day 4 to 10 after MC093-stimulation by H and E staining assay; format: functional, organism-based
Mus musculus [6] = test: Antiinflammatory activity against MC093-induced atopic dermatitis BALB/c mouse model assessed as reduction in inflammatory cell infiltration in ear administered starting from day 4 to 10 after MC093-stimulation by H and E staining assay; format: functional, organism-based
Mus musculus [7] = test: In vivo inhibition of NFkappaB signalling pathway in IG dosed MC093-induced atopic dermatitis BALB/c mouse model assessed as reduction in P65 phosphorylation level in ear skin starting from day 4 to 10 after MC093-stimulation by Western blot analysis; format: functional, organism-based; details: dose 50-100 mg/kg, time 7.0 day
Mus musculus [8] = test: In vivo inhibition of […] signalling pathway in MC093-induced atopic dermatitis BALB/c mouse model assessed as reduction in P65 phosphorylation level in ear skin at 50 to 100 mg/kg, IG administered starting from day 4 to 10 after MC093-stimulation by immunohistochemistry analysis; format: functional, organism-based; details: dose 50-100 mg/kg, time 7.0 day
Mus musculus [9] = test: Antiinflammatory activity against MC093-induced atopic dermatitis BALB/c mouse model assessed as reduction in number of scratches at 50 to 100 mg/kg, IG administered starting from day 4 to 10 and measured after 30 mins of MC093-stimulation; format: functional, organism-based; details: dose 50-100 mg/kg, time 7.0 day
[10] = target: T1, Inhibitor of nuclear factor kappa-B kinase subunit alpha (Mus musculus) (UniProt Q60680); test: Inhibition of IkappaB-alpha phosphorylation in LPS induced mouse RAW264.7 cells preincubated for 2 hrs followed by LPS addition and measured after 24 hrs by Western blot analysis; format: cell-based; details: dose 2.5-10 µmol, time 26.0 hrs
T1 sequence (whole entry): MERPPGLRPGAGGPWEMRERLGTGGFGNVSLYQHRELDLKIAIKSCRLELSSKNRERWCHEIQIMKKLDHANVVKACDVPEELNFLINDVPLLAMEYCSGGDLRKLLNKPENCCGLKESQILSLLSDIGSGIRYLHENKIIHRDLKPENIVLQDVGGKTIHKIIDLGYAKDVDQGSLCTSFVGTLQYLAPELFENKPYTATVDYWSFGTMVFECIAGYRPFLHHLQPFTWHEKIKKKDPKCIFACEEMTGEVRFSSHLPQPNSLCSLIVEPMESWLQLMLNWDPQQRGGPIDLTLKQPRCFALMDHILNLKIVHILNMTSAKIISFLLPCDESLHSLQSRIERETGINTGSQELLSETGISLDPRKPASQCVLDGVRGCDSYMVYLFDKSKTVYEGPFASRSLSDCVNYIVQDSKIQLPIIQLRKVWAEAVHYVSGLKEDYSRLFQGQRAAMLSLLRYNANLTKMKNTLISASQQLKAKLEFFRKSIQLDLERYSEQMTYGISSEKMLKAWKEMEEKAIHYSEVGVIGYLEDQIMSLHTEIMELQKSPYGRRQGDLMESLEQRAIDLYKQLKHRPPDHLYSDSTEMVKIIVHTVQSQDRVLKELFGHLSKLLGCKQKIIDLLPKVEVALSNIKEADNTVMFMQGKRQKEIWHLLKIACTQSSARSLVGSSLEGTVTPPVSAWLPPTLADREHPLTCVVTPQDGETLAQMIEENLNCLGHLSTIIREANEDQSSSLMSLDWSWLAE

Mus musculus [11] = test: Antiinflammatory activity against MC093-induced atopic dermatitis BALB/c mouse model assessed as reduction in IL-5 level in serum at 50 to 100 mg/kg, IG administered starting from day 4 to 10 after MC093-stimulation; format: functional, organism-based; details: dose 50-100 mg/kg, time 7.0 day
Mus musculus [12] = test: Antiinflammatory activity against MC093-induced atopic dermatitis BALB/c mouse model assessed as reduction in TSLP level in serum at 50 to 100 mg/kg, IG administered starting from day 4 to 10 after MC093-stimulation; format: functional, organism-based; details: dose 50-100 mg/kg, time 7.0 day
[13] = target: MAP kinase p38 (Mus musculus) (UniProt P47811+O08911+Q9WUI1+Q9Z1B7); test: Inhibition of P38 phosphorylation in LPS-induced mouse RAW264.7 cells preincubated for 2 hrs followed by LPS addition and measured after 24 hrs by Western blot analysis; format: cell-based; details: dose 2.5-10 µmol, time 26.0 hrs
Mus musculus [14] = test: In vivo inhibition of MAPK signalling pathway in MC093-induced atopic dermatitis BALB/c mouse model assessed as reduction in p-JNK/JNK ratio in ear skin at 50 to 100 mg/kg, IG administered starting from day 4 to 10 after MC093-stimulation by Western blot analysis; format: functional, organism-based; details: dose 50-100 mg/kg, time 7.0 day
Mus musculus [15] = test: In vivo inhibition of […] signalling pathway in MC093-induced atopic dermatitis BALB/c mouse model assessed as reduction in IkappaB-alpha phosphorylation level in ear skin at 50 to 100 mg/kg, IG administered starting from day 4 to 10 after MC093-stimulation by immunohistochemistry analysis; format: functional, organism-based; details: dose 50-100 mg/kg, time 7.0 day
Mus musculus [16] = test: In vivo inhibition of MAPK signalling pathway in MC093-induced atopic dermatitis BALB/c mouse model assessed as reduction in p-P38/P38 ratio in ear skin at 50 to 100 mg/kg, IG administered starting from day 4 to 10 after MC093-stimulation by Western blot analysis; format: functional, organism-based; details: dose 50-100 mg/kg, time 7.0 day
Mus musculus [17] = test: Antiinflammatory activity against MC093-induced atopic dermatitis BALB/c mouse model assessed as reduction in ear swelling at 50 to 100 mg/kg, IG administered starting from day 4 to 10 after MC093-stimulation; format: functional, organism-based; details: dose 50-100 mg/kg, time 7.0 day
Mus musculus [18] = test: In vivo inhibition of MAPK signalling pathway in MC093-induced atopic dermatitis BALB/c mouse model assessed as reduction in p-ERK/ERK ratio in ear skin at 50 to 100 mg/kg, IG administered starting from day 4 to 10 after MC093-stimulation by Western blot analysis; format: functional, organism-based; details: dose 50-100 mg/kg, time 7.0 day
Mus musculus [19] = test: Antiinflammatory activity against MC093-induced atopic dermatitis BALB/c mouse model assessed as reduction in IgE level in serum at 50 to 100 mg/kg, IG administered starting from day 4 to 10 after MC093-stimulation; format: functional, organism-based; details: dose 50-100 mg/kg, time 7.0 day
Mus musculus [20] = test: Antiinflammatory activity against MC093-induced atopic dermatitis BALB/c mouse model assessed as reduction in IL-13 level in serum at 50 to 100 mg/kg, IG administered starting from day 4 to 10 after MC093-stimulation; format: functional, organism-based; details: dose 50-100 mg/kg, time 7.0 day
[21] = target: Transcription factor p65 (Mus musculus) (UniProt Q04207); test: Inhibition of P65 phosphorylation in LPS induced mouse RAW264.7 cells preincubated for 2 hrs followed by LPS addition and measured after 24 hrs by Western blot analysis; format: cell-based; details: dose 2.5-10 µmol, time 26.0 hrs
Sequence of Transcription factor p65 (Mus musculus) (Q04207 whole entry): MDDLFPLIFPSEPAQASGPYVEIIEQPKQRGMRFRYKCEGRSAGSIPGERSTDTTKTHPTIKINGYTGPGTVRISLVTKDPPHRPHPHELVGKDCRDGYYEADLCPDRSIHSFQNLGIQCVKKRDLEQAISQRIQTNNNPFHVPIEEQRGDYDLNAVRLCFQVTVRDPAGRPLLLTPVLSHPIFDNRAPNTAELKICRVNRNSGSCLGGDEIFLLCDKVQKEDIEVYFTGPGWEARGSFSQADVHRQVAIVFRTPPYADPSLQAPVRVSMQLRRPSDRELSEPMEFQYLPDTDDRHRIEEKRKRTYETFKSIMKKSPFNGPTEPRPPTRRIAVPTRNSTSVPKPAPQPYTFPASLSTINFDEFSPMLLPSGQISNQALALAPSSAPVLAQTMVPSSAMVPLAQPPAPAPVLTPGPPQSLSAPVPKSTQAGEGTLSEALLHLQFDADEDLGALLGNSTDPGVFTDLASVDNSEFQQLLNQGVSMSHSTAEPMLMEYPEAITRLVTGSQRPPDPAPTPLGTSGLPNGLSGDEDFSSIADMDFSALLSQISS

Mus musculus [22] = test: Antiinflammatory activity against MC093-induced atopic dermatitis BALB/c mouse model assessed as reduction in epidermal thickness of ear at 50 to 100 mg/kg, IG administered starting from day 4 to 10 after MC093-stimulation by H and E staining assay; format: functional, organism-based; details: dose 50-100 mg/kg, time 7.0 day
Mus musculus [23] = test: Antiinflammatory activity against MC093-induced atopic dermatitis BALB/c mouse model assessed as reduction in weight of ear at 50 to 100 mg/kg, IG administered starting from day 4 to 10 after MC093-stimulation; format: functional, organism-based; details: dose 50-100 mg/kg, time 7.0 day
Mus musculus [24] = test: Antiinflammatory activity against MC093-induced atopic dermatitis BALB/c mouse model assessed as reduction in inflammatory cell infiltration in ear at 50 to 100 mg/kg, IG administered starting from day 4 to 10 after MC093-stimulation by H and E staining assay; format: functional, organism-based; details: dose 50-100 mg/kg, time 7.0 day
Mus musculus [25] = test: Antiinflammatory activity against MC093-induced atopic dermatitis BALB/c mouse model assessed as reduction in IL-33 level in serum at 50 to 100 mg/kg, IG administered starting from day 4 to 10 after MC093-stimulation; format: functional, organism-based; details: dose 50-100 mg/kg, time 7.0 day
Mus musculus [26] = test: Antiinflammatory activity against MC093-induced atopic dermatitis BALB/c mouse model assessed as reduction in IL-4 level in serum at 50 to 100 mg/kg, IG administered starting from day 4 to 10 after MC093-stimulation; format: functional, organism-based; details: dose 50-100 mg/kg, time 7.0 day
Mus musculus [27] = test: Antiinflammatory activity against MC093-induced atopic dermatitis BALB/c mouse model assessed as reduction in HIS level in serum at 50 to 100 mg/kg, IG administered starting from day 4 to 10 after MC093-stimulation; format: functional, organism-based; details: dose 50-100 mg/kg, time 7.0 day
Mus musculus [28] = test: Antiinflammatory activity against MC093-induced atopic dermatitis BALB/c mouse model assessed as reduction in scratching latency at 50 to 100 mg/kg, IG administered starting from day 4 to 10 and measured after 30 mins of MC093-stimulation; format: functional, organism-based; details: dose 50-100 mg/kg, time 7.0 day
Mus musculus [29] = test: In vivo inhibition of NFkappaB signalling pathway in IG dosed MC093-induced atopic dermatitis BALB/c mouse model assessed as reduction in IkappaB-alpha phosphorylation level in ear skin starting from day 4 to 10 after MC093-stimulation by Western blot analysis; format: functional, organism-based; details: dose 50-100 mg/kg, time 7.0 day

SMILES: C=C1CC[C@H]2C(=C)CC[C@H]3C(CNCCNCc4cc(Cl)cc(Cl)c4O)C(=O)O[C@@H]3[C@@H]12 (stereo partly specified)
inhibition at 20 µM (RAW264.7 [1]): 51.5% | cytotoxicity at 20 µM [2]: 8.94% | pIC50 [3]: < 4.40 | pIC50 (RAW264.7 [4]): 4.71

SMILES: C=C1CC[C@H]2C(=C)CC[C@H]3C(CN(CCNS(=O)(=O)c4ccc(F)cc4)S(=O)(=O)c4ccc(F)cc4)C(=O)O[C@@H]3[C@@H]12 (stereo partly specified)
inhibition at 20 µM (RAW264.7 [1]): 75.1% | cytotoxicity at 20 µM [2]: 9.81% | pIC50 [3]: < 4.40 | pIC50 (RAW264.7 [4]): 4.82

SMILES: C=C1CC[C@H]2C(=C)CC[C@H]3C(CN(CCNS(=O)(=O)c4ccc5ccccc5c4)S(=O)(=O)c4ccc5ccccc5c4)C(=O)O[C@@H]3[C@@H]12 (stereo partly specified)
inhibition at 20 µM (RAW264.7 [1]): 76.8% | cytotoxicity at 20 µM [2]: 8.58% | pIC50 [3]: < 4.40 | pIC50 (RAW264.7 [4]): 4.78

SMILES: C=C1CC[C@H]2C(=C)CC[C@H]3C(CNCCNCc4cc([N+](=O)[O-])ccc4O)C(=O)O[C@@H]3[C@@H]12 (stereo partly specified)
inhibition at 20 µM (RAW264.7 [1]): 68.4% | cytotoxicity at 20 µM [2]: 24.7% | pIC50 [3]: < 4.40 | pIC50 (RAW264.7 [4]): 4.99

Continued, in another order:

pIC50 (RAW264.7 [4]): 4.89
SMILES: C=C1CC[C@H]2C(=C)CC[C@H]3C(CN(CCNS(=O)(=O)c4cc(Cl)c(F)cc4F)S(=O)(=O)c4cc(Cl)c(F)cc4F)C(=O)O[C@@H]3[C@@H]12 (stereo partly specified)
inhibition at 20 µM (RAW264.7 [1]): 68.1% | cytotoxicity at 20 µM [2]: 10.4% | pIC50 [3]: < 4.40

pIC50 (RAW264.7 [4]): 4.96
SMILES: C[C@@H]1C[C@H]2[C@@H]3CCC4=CC(=O)C=C[C@]4(C)[C@@]3(F)[C@@H](O)C[C@]2(C)[C@@]1(O)C(=O)CO [DEXAMETHASONE]
Activity (Mus musculus [5]): Active | pIC50 [3]: < 4.40 | Activity (Mus musculus [6]): Active

inhibition [10]: Dose-Dependent Effect | inhibition [13]: Dose-Dependent Effect | inhibition [21]: Dose-Dependent Effect | pIC50 (RAW264.7 [4]): 5.68
SMILES: C=C1CC[C@H]2C(=C)CC[C@H]3C(CN(CCNS(=O)(=O)c4ccc(C(F)(F)F)cc4)S(=O)(=O)c4ccc(C(F)(F)F)cc4)C(=O)O[C@@H]3[C@@H]12 (stereo partly specified)
inhibition (Mus musculus [7]): Dose-Dependent Effect | inhibition (Mus musculus [8]): Active | inhibition at 20 µM (RAW264.7 [1]): 85.1% | Activity (Mus musculus [9]): Active | Activity (Mus musculus [11]): Active | Activity (Mus musculus [12]): Active | inhibition (Mus musculus [14]): inactive | inhibition (Mus musculus [15]): Active | inhibition (Mus musculus [16]): inactive | Activity (Mus musculus [17]): Active | cytotoxicity at 20 µM [2]: -6.84% | inhibition (Mus musculus [18]): inactive | pIC50 [3]: < 4.40 | Activity (Mus musculus [19]): Active | Activity (Mus musculus [20]): Active | Activity (Mus musculus [22]): Active | Activity (Mus musculus [23]): Active | Activity (Mus musculus [24]): Active | Activity (Mus musculus [25]): Active | Activity (Mus musculus [26]): Active | Activity (Mus musculus [27]): inactive | Activity (Mus musculus [28]): Active | inhibition (Mus musculus [29]): Dose-Dependent Effect
